From patent US6995139B2, “Cyclic undecapeptide pro-drugs and uses thereof” (Debiopharm S.A., priority 2001, dated 2006) come the findings set out here.

As usually defined, the solubility is how much of the substance goes into solution per volume. As a reminder, the half-life is how long it takes for the measured level to halve. Read a high half-life as slow decline. As usually defined, the AUC(0-inf) is total exposure, with the tail of the curve extrapolated. A high value points to high exposure. One may read the MRT as a mean duration of stay, worked out from the concentration-time curve. The clearance is the volume of plasma or blood freed of the substance per unit of time. Low values mean a low capacity for elimination, high ones a high capacity for elimination.

Like-named read-outs stand apart in the source and are kept apart here. Bounds are passed on as bounds.

The nature of data set [1]: Water-solubility by visual examination in 67 mM Sorensen phosphate buffers. The format is physicochemical. As to conditions: 67 mM Sorensen phosphate buffer, ambient temperature.
Data set [2] is classed as in vitro ADME. As to conditions: bovine, serum.
The conditions of data set [3]: rat, in vivo, iv, 10 mg/kg.
A further data set deals with esterases. Description: Enzymatic stability: hydrolysis in Hepes buffer in the presence of esterases. As to conditions: 50 mM Hepes buffer, pH 7.4, 37° C., FIG. 1.
Another data set in a line: in vitro. As to conditions: rabbit, cerebrospinal or other body fluid, pH 7. The format is in vitro ADME. As to the method: This conversion kinetics test was carried out by incubating, at 37° C., 25 μl of a sample of the solution described above, with gentle stirring, with 8 μl of fresh rabbit tear. 2 μl samples were taken at intervals of 1, 2, 3 and 30 minutes, and were then analyzed by HPLC.

In the next data set the test system is cornea. Description: Confocal laser scanning opthalmoscope test (subacute ocular toxicity). As to conditions: rabbit cornea, 25 μl three times a day for four days; (XV) aqueous solution, Cyclosporin A 1% in olive oil.
The mark [4] stands for this setting: T1/22 (terminal half-life time).

Method for cornea: The solutions were sterilized by passing them through 0.22 μm nitrocellulose filters.
This test was carried out on the same type of animal as previously. 25 μl of a solution as described above were instilled onto the cornea of the right eye three times a day for four days, and then once on the fourth day just before observation. After the final installation, the rabbits were sedated by administering ketamine hydrochloride and xylazine. A total of 25 μl of a solution of sodium fluorescein at 0.5% by weight/volume were instilled onto the eye in order to allow selective labeling of the surfaces possibly damaged. The eye was then rinsed for one minute with a saline solution at 37° C.
The opthalmoscope was coupled to an image analysis system in order to be able to reconstitute an image in three dimensions and to allow evaluation of the damaged areas.
Method for esterases: During the incubation at 37° C., 40 μl aliquots are sampled at appropriate time periods and analyzed by HPLC and ESI-MS.

In the case of `C/C=C/C[C@@H](C)[C@@H](OC(=O)CN(C)C(=O)[C@H](COP(=O)(O)O)NC(=O)OC(C)OC(C)=O)[C@H]1C(=O)N[C@@H](CC)C(=O)N(C)CC(=O)N(C)[C@@H](CC(C)C)C(=O)N[C@@H](C(C)C)C(=O)N(C)[C@@H](CC(C)C)C(=O)N[C@@H](C)C(=O)N[C@H](C)C(=O)N(C)[C@@H](CC(C)C)C(=O)N(C)[C@@H](CC(C)C)C(=O)N(C)[C@@H](C(C)C)C(=O)N1C` (stereo partly shown) [(XVI), MeBmt(O-Sar-Ser(OPO(OH)2)—COOCH(CH3)OCOCH3)^1-CsA], the solubility in data set [1] (pH 5) is greater than 20 mM; in data set [1] (pH 6, read-out: Water-solubility at pH = 6), greater than 20 mM; in data set [1] (pH 7), greater than 20 mM; in data set [1] (pH 8, read-out: Water-solubility at pH = 8) it was greater than 20 mM. Further, the half-life in data set [2] was 3.5 h; in data set [3] (T1/21 (initial half-life time)), 0.2 h; in data set [3] (setting [4]) it was 11.8 h. In data set [3], this molecule registered an area under the curve AUC(0-inf) of 44700 ng·h/mL. In data set [3], this molecule yielded an MRT of 14.9 h. The same molecule gave a clearance in data set [3] of 3.67 mL/min/kg. Also, the “hydrolysis in the presence of esterases (release of Cyclosporin A)” value in the data set with esterases was “rapidly degrades to release the Cyclosporin A”.
Molecule `C/C=C/C[C@@H](C)[C@@H](OC(=O)CN(C)C(=O)[C@H](CCCC[N+](C)(C)C)NC(=O)OC(C)OC(C)=O)[C@H]1C(=O)N[C@@H](CC)C(=O)N(C)CC(=O)N(C)[C@@H](CC(C)C)C(=O)N[C@@H](C(C)C)C(=O)N(C)[C@@H](CC(C)C)C(=O)N[C@@H](C)C(=O)N[C@H](C)C(=O)N(C)[C@@H](CC(C)C)C(=O)N(C)[C@@H](CC(C)C)C(=O)N(C)[C@@H](C(C)C)C(=O)N1C` (stereo partly shown) [(XV), MeBmt(O-Sar-Lys(Nε^+Me3)-COOCH(CH3)OCOCH3))^1-CsA.I^−] had a half-life in data set [2] of 3.66 h. In the data set “in vitro”, the metabolised at 0.05 h, 0.76 % (weight/volume) Cyclosporin A equivalent was 3%. For the same molecule, in data set [3], the AUC(0-inf) turned out to be 66600 ng·h/mL, the MRT turned out to be 15.3 h and the clearance is 2.5 mL/min/kg. The molecule also gave a half-life in data set [3] (T1/21 (initial half-life time)) of 0.55 h. The molecule further gave a half-life in data set [3] (setting [4]) of 11.8 h. Also, in the data set on cornea, the “CLSO, % lesions (corneal lesions)” value turned out to be 7%.
